The structures appear in SMILES notation. Bounds are passed on as bounds.

The test system of experiment [1] is H460. Briefly: MTS proliferation assay. The format is cell-based. The following applies: Homo sapiens, NCI-H460; H460, 72 h incubation. On the procedure:
(§1) The assay is performed in 96 well tissue culture plates. The cells (range : 1.5*10^3 - 10^4) are seeded out in 80 µl complete medium 24 h prior to compound treatment. The test compounds are added in 20 µl complete medium containing max 5% DMSO. The final compound concentrations in the assays are 10 µM, 3 µM, 1 µM and 0.3 µM, respectively. The assay plates are incubated for 72 h at culture conditions. The MTS reagent is prepared according to the manufacturer's protocol (Promega G1111). 20 µl MTS reagent are added to each well, the assay plates are quickly spun and incubated for another 3 h at culture conditions. Subsequently, the plates are shortly shaked and absorption measured with a microplate-reader at 492 nm. Table 3: MTS proliferation assay
A general note: Formazan colour is commonly taken as a measure of viable cells.

Another experiment has as its system MRC5. The experiment in a line: MTS proliferation assay. It is filed as cell-based. Particulars: Homo sapiens; MRC5, 72 h incubation. As for the experimental part:
as §1

In experiment [2] the test system is Jurkat. Briefly: MTS proliferation assay. It is filed as cell-based. The following applies: Homo sapiens, 72 h incubation. On the procedure: as §1
Experiment [3] relates to HeLa. Briefly: MTS proliferation assay. It is filed as cell-based. The following applies: Homo sapiens, 72 h incubation. As for the experimental part: as §1
The subject of experiment [4] is Jily. Briefly: MTS proliferation assay. Particulars: 72 h incubation. The format is cell-based. On the procedure:
as §1

Experiment [5] deals with H460. Briefly: Hoechst 33342 nuclear staining. The format is cell-based, human. Also on record: key: 0: no activity; 1: weak activity comprising less than 50% of the cells; 2: strong activity comprising more than 50% of the cells. The following applies: 48 hour read-out. As for the experimental part:
(§2) This assay is performed in 96 well tissue culture plates. Appropriate number of cells (adherent cells: 3 - 5*10^3, suspension cells: 8 - 10*10^3) are being seeded out in 80 µl complete medium. Adherent cells are incubated for 24 h for proper spreading out before addition of test compounds while suspension cells are immediately treated with test compounds after seeding out. The test compounds are added in 20 µl complete medium containing max 5% DMSO. […] After 24 h or 48 h incubation at culture conditions, 10 µl medium containing Hoechst 33342 dye (Sigma B-2261) at 2-5 µg/ml are added to each well. The assay plates are then further incubated for 30 minutes and subsequently analyzed with a standard inverted fluorescence microscope.
(§3) The readout allows the determination of the fraction of apoptotic nuclei as well as other morphological criteria specific for apoptosis as a function of the treatment. Table 2: Hoechst 33342 nuclear staining (48 hour read-out)

The test system of experiment [6] is Jurkat. Briefly: Hoechst 33342 nuclear staining. It is filed as cell-based, human. On the set-up: key: 0: no activity; 1: weak activity comprising less than 50% of the cells; 2: strong activity comprising more than 50% of the cells. Particulars: 48 hour read-out. On the procedure: as §2, §3
Experiment [7] deals with HeLa. Briefly: Hoechst 33342 nuclear staining. It is filed as cell-based, human. On the set-up: key: 0: no activity; 1: weak activity comprising less than 50% of the cells; 2: strong activity comprising more than 50% of the cells. Particulars: 48 hour read-out. On the procedure:
as §2, §3

In another experiment the test system is PBL. Briefly: Hoechst 33342 nuclear staining. Particulars: 48 hour read-out. On the set-up: key: 0: no activity; 1: weak activity comprising less than 50% of the cells; 2: strong activity comprising more than 50% of the cells. It is filed as cell-based. On the procedure:
as §2, §3

The test system of experiment [8] is Jily. Briefly: Hoechst 33342 nuclear staining. The format is cell-based. Also on record: key: 0: no activity; 1: weak activity comprising less than 50% of the cells; 2: strong activity comprising more than 50% of the cells. The following applies: 48 hour read-out. On the procedure:
as §2, §3

As for `COc1ccc(S(=O)(=O)n2cccc2-c2cc(OC)c(OC)c(OC)c2)cc1` [Example 2, 1-p-methoxyphenylsulfonyl-2-(3,4,5-trimethoxyphenyl)-pyrrole], the IC50 was < 100 nM in the experiment on H460 [1]; < 100 nM in the experiment on MRC5; < 100 nM in the experiment with Jurkat [2]; 100 to 1000 nM in the experiment on HeLa [3]; < 100 nM in the experiment on Jily [4]. For the same compound, the “Hoechst 33342 nuclear staining score (fraction of apoptotic nuclei)” value with H460 [5] (H460, 0.01µM) is reported as 0; in the experiment with H460 [5] (H460, 0.1µM), 2 (strong activity comprising more than 50% of the cells.); with H460 [5] (H460, 1µM) it was 2 (strong activity comprising more than 50% of the cells.); with Jurkat [6] (0.01µM), 0; in the experiment on Jurkat [6] (0.1µM) it was 2 (strong activity comprising more than 50% of the cells.); in the experiment on Jurkat [6] (1µM), 2 (strong activity comprising more than 50% of the cells.). Moreover, the “Hoechst 33342 nuclear staining score (fraction of apoptotic nuclei)” value with HeLa [7] (0.01µM) is 0; in the experiment on HeLa [7] (0.1µM) it was 2 (strong activity comprising more than 50% of the cells.); with HeLa [7] (1µM), 2 (strong activity comprising more than 50% of the cells.); in the experiment with PBL (0.01µM), 0; in the experiment with PBL (0.1µM), 0; in the experiment with PBL (1µM) it was 0. Moreover, the “Hoechst 33342 nuclear staining score (fraction of apoptotic nuclei)” value in the experiment on Jily [8] (0.01µM) is on record as 0; with Jily [8] (0.1µM) it was 2 (strong activity comprising more than 50% of the cells.); with Jily [8] (1µM), 2 (strong activity comprising more than 50% of the cells.).
In the case of `COc1ccc(S(=O)(=O)n2cc(C(=O)Nc3ccc(N4CCOCC4)cc3)cc2-c2cc(OC)c(OC)c(OC)c2)cc1` [Example 3, N-p-morpholinophenyl-1-p-methoxyphenylsulfonyl-2-(3,4,5-trimethoxyphenyl)-Pyrrole-4-carboxamide], the IC50 with H460 [1], with MRC5, with Jurkat [2], in the experiment with HeLa [3] and in the experiment on Jily [4] was < 100 nM throughout. The “Hoechst 33342 nuclear staining score (fraction of apoptotic nuclei)” value is recorded as 0 in the experiment on H460 [5] (H460, 0.01µM); 2 (strong activity comprising more than 50% of the cells.) with H460 [5] (H460, 0.1µM); 2 (strong activity comprising more than 50% of the cells.) with H460 [5] (H460, 1µM); 2 (strong activity comprising more than 50% of the cells.) with Jurkat [6] (0.01µM); 2 (strong activity comprising more than 50% of the cells.) in the experiment on Jurkat [6] (0.1µM); 2 (strong activity comprising more than 50% of the cells.) in the experiment on Jurkat [6] (1µM). Further, the “Hoechst 33342 nuclear staining score (fraction of apoptotic nuclei)” value is given as 0 with HeLa [7] (0.01µM); 2 (strong activity comprising more than 50% of the cells.) in the experiment with HeLa [7] (0.1µM); 2 (strong activity comprising more than 50% of the cells.) in the experiment on HeLa [7] (1µM); 0 in the experiment with PBL (0.01µM); 0 with PBL (0.1µM); 0 in the experiment on PBL (1µM). The “Hoechst 33342 nuclear staining score (fraction of apoptotic nuclei)” value in the experiment with Jily [8] (0.01µM), in the experiment on Jily [8] (0.1µM) and in the experiment with Jily [8] (1µM) was 2 (strong activity comprising more than 50% of the cells.) in each case.
Turning to `COc1ccc(S(=O)(=O)n2cc(Br)cc2-c2cc(OC)c(OC)c(OC)c2)cc1` [Example 1, 4-Bromo-1-p-methoxyphenylsulfonyl-2-(3,4,5-trimethoxyphenyl)-pyrrole], the IC50 in the experiment on H460 [1] was 100 to 1000 nM; in the experiment with MRC5, 100 to 1000 nM; in the experiment on Jurkat [2], < 100 nM; in the experiment with HeLa [3] it was 100 to 1000 nM; in the experiment with Jily [4] it was 100 to 1000 nM. Also, the “Hoechst 33342 nuclear staining score (fraction of apoptotic nuclei)” value is 0 in the experiment with H460 [5] (H460, 0.01µM); 2 (strong activity comprising more than 50% of the cells.) with H460 [5] (H460, 0.1µM); 2 (strong activity comprising more than 50% of the cells.) in the experiment on H460 [5] (H460, 1µM); 0 with Jurkat [6] (0.01µM); 2 (strong activity comprising more than 50% of the cells.) in the experiment on Jurkat [6] (0.1µM); 2 (strong activity comprising more than 50% of the cells.) in the experiment on Jurkat [6] (1µM). Further, the “Hoechst 33342 nuclear staining score (fraction of apoptotic nuclei)” value in the experiment on HeLa [7] (0.01µM) is on record as 0; in the experiment on HeLa [7] (0.1µM), 0; with HeLa [7] (1µM), 2 (strong activity comprising more than 50% of the cells.); with PBL (0.01µM), 0; with PBL (0.1µM), 0; in the experiment with PBL (1µM) it was 0. In addition, the “Hoechst 33342 nuclear staining score (fraction of apoptotic nuclei)” value in the experiment on Jily [8] (0.01µM) is given as 0; with Jily [8] (0.1µM), 2 (strong activity comprising more than 50% of the cells.); in the experiment on Jily [8] (1µM) it was 2 (strong activity comprising more than 50% of the cells.).

By IC50 is commonly meant the concentration that gives 50% inhibition.

Source of the values: patent EP1655284A1, “2-Phenylsulfopyrroles” (Aponetics AG, priority 2004, dated 2006).
